One experiment concerns the target A2AR (Homo sapiens, UniProt P29274). Briefly: A2AR potency (KB), Table 1. Format: biochemical. Conditions: read-out: Potency: A2AR KB (A2A).
The target in the next experiment is T1, A2BR (Homo sapiens, UniProt P29275).
T1 sequence (P29275 1-332): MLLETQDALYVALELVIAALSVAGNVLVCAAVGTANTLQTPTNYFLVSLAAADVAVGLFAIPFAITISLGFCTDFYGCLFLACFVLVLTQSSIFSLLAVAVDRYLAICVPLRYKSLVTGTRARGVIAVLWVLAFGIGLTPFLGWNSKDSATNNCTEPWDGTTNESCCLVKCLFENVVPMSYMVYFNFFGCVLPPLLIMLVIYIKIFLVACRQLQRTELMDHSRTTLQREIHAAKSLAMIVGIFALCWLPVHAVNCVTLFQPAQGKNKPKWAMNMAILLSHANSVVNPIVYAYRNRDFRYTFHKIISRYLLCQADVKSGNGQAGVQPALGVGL
In words: A2BR potency (KB), Table 1. Format: biochemical.

SMILES strings stand for the structures.

Sequence of A2AR (P29274 whole entry): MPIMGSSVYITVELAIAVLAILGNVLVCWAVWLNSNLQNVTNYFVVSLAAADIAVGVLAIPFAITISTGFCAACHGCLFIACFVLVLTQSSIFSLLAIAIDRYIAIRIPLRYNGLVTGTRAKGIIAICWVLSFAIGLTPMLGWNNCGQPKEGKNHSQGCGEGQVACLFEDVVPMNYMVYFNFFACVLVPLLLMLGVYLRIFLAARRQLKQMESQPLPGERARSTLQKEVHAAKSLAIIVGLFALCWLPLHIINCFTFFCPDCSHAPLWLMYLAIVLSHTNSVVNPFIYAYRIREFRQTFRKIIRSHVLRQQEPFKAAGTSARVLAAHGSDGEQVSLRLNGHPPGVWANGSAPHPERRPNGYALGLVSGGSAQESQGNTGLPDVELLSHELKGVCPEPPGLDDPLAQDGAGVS

For `Nc1nc(-c2cn(Cc3ccn[nH]3)nn2)c2cccc(F)c2n1`, the Kb on A2AR and at A2BR was < 100 nM in each case.
For `COc1cccc2c(-c3cn(Cc4cc[nH]n4)nn3)nc(N)nc12`, the Kb at A2AR and on A2BR was < 100 nM each time.
Take `COc1cccc2c(-c3cn(Cc4ccn(C5CC5)n4)nn3)nc(N)nc12`: the Kb at A2AR and on A2BR was < 100 nM throughout.
With `COc1cccc2c(-c3cn(Cc4ccnn4C(C)C)nn3)nc(N)nc12`, the Kb at A2AR and on A2BR was < 100 nM each time.
For the compound `COc1cccc2c(-c3cn(Cc4ccn(C(C)C)n4)nn3)nc(N)nc12`, the Kb on A2AR and at A2BR was < 100 nM in each case.
In the case of `COc1cccc2c(-c3cn(Cc4ccn(C5CC5)n4)nn3)cc(N)nc12`, the Kb on A2AR and on A2BR was < 100 nM in each case.
Turning to `COc1cccc2c(-c3cn(Cc4ccnn4C)nn3)nc(N)nc12`, the Kb on A2AR and at A2BR was < 100 nM each time.
As for `COc1cccc2c(-c3cn(Cc4ccn(C)n4)nn3)nc(N)nc12`, the Kb at A2AR and on A2BR was < 100 nM in each case.
Consider `CC(C)n1ccc(Cn2cc(-c3nc(N)nc4c(Cl)cccc34)nn2)n1`, for which the Kb at A2AR and on A2BR was < 100 nM in each case.
With `CC(C)n1nccc1Cn1cc(-c2nc(N)nc3c(Cl)cccc23)nn1`, the Kb on A2AR and at A2BR was < 100 nM throughout.
As for `COc1c(F)ccc2c(-c3cn(Cc4ccnn4C(C)C)nn3)nc(N)nc12`, the Kb at A2AR and at A2BR was < 100 nM each time.
With `COc1c(F)ccc2c(-c3cn(Cc4ccn(C(C)C)n4)nn3)nc(N)nc12`, the Kb on A2AR and on A2BR was < 100 nM throughout.
`COc1cccc2c(-c3cn(Cc4ccn([C@@H]5CCOC5)n4)nn3)nc(N)nc12`: the Kb on A2AR and on A2BR was < 100 nM each time.
As for `COc1cccc2c(-c3cn(Cc4ccn([C@H]5CCOC5)n4)nn3)nc(N)nc12`, the Kb on A2AR and on A2BR was < 100 nM throughout.
Regarding `COc1cccc2c(-c3cn(Cc4ccn(CC(C)(C)O)n4)nn3)nc(N)nc12`, the Kb on A2AR and on A2BR was < 100 nM each time.
For `CC(C)n1ccc(Cn2cc(-c3cc(N)nc4c(F)cccc34)nn2)n1`, the Kb on A2AR and on A2BR was < 100 nM each time.
Take `COc1cccc2c(-c3cn(Cc4ccnn4CCO)nn3)nc(N)nc12`: the Kb at A2AR is < 100 nM.
For the compound `COc1cccc2c(-c3cn(Cc4ccn(CCO)n4)nn3)nc(N)nc12`, the Kb on A2AR is < 100 nM.
As to `CCn1ccc(Cn2cc(-c3nc(N)nc4c(OC)cccc34)nn2)n1`, the Kb at A2AR and at A2BR was < 100 nM in each case.
Consider `COc1cccc2c(-c3cn(Cc4ccnn4CC4CCCO4)nn3)nc(N)nc12` (stereo not shown), for which the Kb on A2AR is < 100 nM; on A2BR it was 100 to 1000 nM.
For the compound `CCOc1cccc2c(-c3cn(Cc4ccn(C5CC5)n4)nn3)nc(N)nc12`, the Kb is < 100 nM on A2AR and 100 to 1000 nM on A2BR.
The matching figures for `CCOc1cccc2c(-c3cn(Cc4ccn(C(C)C)n4)nn3)nc(N)nc12`: < 100 nM and 100 to 1000 nM.
Consider `Nc1nc(-c2cn(Cc3ccn(C4CC4)n3)nn2)c2ccc(F)c(F)c2n1`, for which the Kb on A2AR and on A2BR was < 100 nM each time.
For `COc1cccc2c(-c3cn(Cc4ccn(CC(=O)O)n4)nn3)nc(N)nc12`, the Kb on A2AR and on A2BR was 100 to 1000 nM each time.
For the compound `CC(C)(O)Cn1ccc(Cn2cc(-c3cc(N)nc4c(F)cccc34)nn2)n1`, the Kb at A2AR and at A2BR was < 100 nM in each case.
As for `COc1cccc2c(-c3cn(Cc4ccn(CC(N)=O)n4)nn3)nc(N)nc12`, the Kb at A2AR and on A2BR was < 100 nM in each case.
On to `COc1cccc2c(-c3cn(Cc4ccn(CC(=O)N5CC(O)C5)n4)nn3)nc(N)nc12`, for which the Kb at A2AR and on A2BR was < 100 nM throughout.
As for `N#Cc1ccc2c(-c3cn(Cc4ccn(C5CC5)n4)nn3)nc(N)nc2c1`, the Kb at A2AR and on A2BR was < 100 nM each time.
Consider `COc1cccc2c(-c3cn(Cc4ccn(CC(=O)N[C@H]5CCOC5)n4)nn3)nc(N)nc12`, for which the values for the Kb on A2AR and at A2BR were < 100 nM and 100 to 1000 nM, respectively.
The matching figures for `COc1cccc2c(-c3cn(Cc4ccn(CC(=O)NCC5(O)CC5)n4)nn3)nc(N)nc12`: < 100 nM and < 100 nM.
The matching figures for `COc1cccc2c(-c3cn(Cc4ccn(CCN5CCCC5=O)n4)nn3)nc(N)nc12`: < 100 nM and 100 to 1000 nM.
Turning to `COc1cccc2c(-c3cn(Cc4ccn(CCN5CCOCC5=O)n4)nn3)nc(N)nc12`, the Kb on A2AR and at A2BR was < 100 nM in each case.
For the compound `COc1cccc2c(-c3cn(Cc4cc(C(C)(C)O)[nH]n4)nn3)nc(N)nc12`, the Kb on A2AR and at A2BR was < 100 nM each time.
In the case of `COc1cccc2c(-c3cn(Cc4ccn(C(C)C(=O)O)n4)nn3)nc(N)nc12` (stereo not shown), the results for the Kb on A2AR and at A2BR were < 100 nM and 100 to 1000 nM, respectively.
Consider `COc1cccc2c(-c3cn(Cc4ccn(C(C)C(N)=O)n4)nn3)nc(N)nc12` (stereo not shown), for which the Kb on A2AR and on A2BR was < 100 nM each time.
As for `COc1cccc2c(-c3cn(Cc4ccn(CC(=O)N[C@@H]5CCOC5)n4)nn3)nc(N)nc12`, the Kb at A2AR is < 100 nM; at A2BR it was 100 to 1000 nM.
The matching figures for `COc1cccc2c(-c3cn(Cc4ccn(C(C)(C)CO)n4)nn3)nc(N)nc12`: < 100 nM and < 100 nM.
As for `CC(C)(CO)n1ccc(Cn2cc(-c3nc(N)nc4c(F)cccc34)nn2)n1`, the Kb at A2AR and on A2BR was < 100 nM throughout.
With `COc1c(F)ccc2c(-c3cn(Cc4ccn(C(C)(C)CO)n4)nn3)nc(N)nc12`, the Kb at A2AR was < 100 nM; on A2BR, 100 to 1000 nM.
Turning to `COc1ccc2c(-c3cn(Cc4ccn(C(C)(C)CO)n4)nn3)nc(N)nc2c1`, the Kb at A2AR and on A2BR was < 100 nM throughout.
On to `COCC(C)(C)n1ccc(Cn2cc(-c3nc(N)nc4c(OC)cccc34)nn2)n1`, for which the Kb on A2AR and on A2BR was < 100 nM in each case.
`COc1cccc2c(-c3cn(Cc4ccn(CC5CCOCC5)n4)nn3)nc(N)nc12`: the Kb at A2AR and on A2BR was < 100 nM each time.

The values are drawn from patent publication US11220492B2, “Quinazoline-pyrazole derivatives for the treatment of cancer-related disorders” (ARCUS BIOSCIENCES, INC., priority 2017, dated 2022).
